Like-named read-outs stand apart in the source and are kept apart here. Starred links: 1 amine or outer side, 2 acyl side, 3 side chain; linkers in the order of their positions; H or OH if unused. Positions of bridges follow the written chain, without caps; N, C: chain ends. Residues, ends and D or L forms follow the SMILES beside them. Benzene(1,3,5-(CH2S)3) = c1c(CS[*:1])cc(CS[*:3])cc1CS[*:2]
Legend:
[1] = target: T1, JNK3 (Homo sapiens, UniProt P53779); assay: direct titration fluorescence polarization assay; type: binding; details: direct titration FP
T1 construct: 39-402 was performed as described in literature; made in house
T1 sequence (P53779 39-402 limits assumed): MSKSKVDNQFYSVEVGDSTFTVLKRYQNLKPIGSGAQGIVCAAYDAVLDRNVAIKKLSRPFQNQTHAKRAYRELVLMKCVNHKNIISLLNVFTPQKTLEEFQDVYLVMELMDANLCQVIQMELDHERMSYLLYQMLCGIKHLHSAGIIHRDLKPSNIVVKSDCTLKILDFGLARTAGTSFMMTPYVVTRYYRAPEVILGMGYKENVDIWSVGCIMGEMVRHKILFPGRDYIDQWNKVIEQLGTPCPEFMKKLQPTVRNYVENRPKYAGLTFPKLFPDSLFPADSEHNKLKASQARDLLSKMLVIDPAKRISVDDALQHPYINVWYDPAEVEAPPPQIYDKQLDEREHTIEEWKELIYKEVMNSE
Experimental: (§1) VII: Expression and Purification of JNK3
(§2) The expression and purification of JNK3339-402 was performed as described in literature. [Lange, A.; Günther, M.; Büttner, F. M.; Zimmermann, M. O.; Heidrich, J.; Hennig, S.; Zahn, S.; Schall, C.; Sievers-Engler, A.; Ansideri, F.; et al. Targeting the Gatekeeper MET146 of C-Jun N-Terminal Kinase 3 Induces a Bivalent Halogen/Chalcogen Bond. Journal of the American Chemical Society 2015, 137
(§3) VIII: Fluorescence polarization assay
Fluorescence polarization assays were performed in 96-wellplates (black, non-binding, Greiner bio-one). The measurements were performed in a CLARIOstar microplate reader (BMG Labtech, Ortenberg, Germany; excit. filter: 480 nm and an emiss. filter: 530 nm). Purified JNK3 was diluted in buffer (HEPES-Buffer, 25 mM) containing additional 0.1 mg/mL BSA. In the case of direct binding fluorescence polarization experiments, each protein concentration with a maximum concentration between 5 μM and 200 μM and a minimum concentration between 0.08 nM – 0.76 nM was measured in triplicates. The KD was obtained by curve fit based on eleven protein concentrations. […]
(§4) For all experiments DMSO (>99.5% (GC)) was […]
(§5) consistently used with a steady concentration of 5% (v/v). Before each measurement, the plates were shaked at 350 rpm for 30 min at room temperature on a plate shaker (Eppendorf MixMate). Before the measurement, the plates were incubated within the microplate reader for 2 min at 25°C and the focal height was adjusted to yield the optimal fluorescence intensity. Measured data was plotted and KD values were obtained by curve fitting of a standard four parameter logistic nonlinear regression model using the program Origin 9.1.
IX: Fluorescence polarization data
Table S2: Overview of the results obtained in direct titration fluorescence polarization assays.
SE = standard error from curve fit, SD = standard deviation from experiments 1-3. […]
Nucleic Acids Research, 37(Web Server issue), W441–W445], SE = standard error from curve fit. […]

[2] = target: T1, JNK3; assay: competitive fluorescence polarization assay (displacement of PIT0105006); type: binding; details: competitive FP
Experimental: as §1, §2, §3
Fluorescence polarization assays were performed in 96-wellplates (black, non-binding, Greiner bio-one). The measurements were performed in a CLARIOstar microplate reader (BMG Labtech, Ortenberg, Germany; excit. filter: 480 nm and an emiss. filter: 530 nm). Purified JNK3 was diluted in buffer (HEPES-Buffer, 25 mM) containing additional 0.1 mg/mL BSA. […]
The KD was obtained by curve fit based on eleven protein concentrations. For competitive binding fluorescence polarization experiments, sample concentrations between 200 μM and 10 nM were measured in triplicates. A steady concentration of 10 nM was used for JNK3 and of 5 nM for the fluorescein-labelled compound PIT0105006 (KD= 3.0 ± 0.2 nM). [Ansideri, F.; Lange, A; El-Gokha […]
A.; Boeckler F. M.; Koch, P. Fluorescence polarization-based assays for detecting compounds binding […]
503, 28-40.]Control measurements were performed with PIT0104002 (concentration between 10 μM […]
as §4, §5
IX: Fluorescence polarization data […]
Table S3: Overview of the results obtained in competitive fluorescence polarization assays. a Conversion of obtained IC50 mean values to KI were performed using a web-based application available at: http://sw16.im.med.umich.edu/software/calc_ki/ (19.07.2018) [Cer, R. Z., Mudunuri, U., Stephens, R., & Lebeda, F. J. (2009). IC50-to-Ki: a web-based tool for converting IC50 to Ki values for inhibitors of enzyme activity and ligand binding. Nucleic Acids Research, 37(Web Server issue), W441–W445], SE = standard error from curve fit. […]

[3] = fluorescein-labeled TPSMB-modified bicyclic peptide, JNK3 titrated, eleven protein concentrations in triplicates, 25 mM HEPES, 0.1 mg/mL BSA, 5% DMSO, 25°C, mean of experiments 1-3 (JK16, JK18: one experiment), read-out: Mean KD
[4] = converted from mean IC50 with web-based IC50-to-Ki tool, read-out: KI
[5] = unlabeled TPSMB bicyclic peptide displacing 5 nM PIT0105006 from 10 nM JNK3, 200 μM-10 nM in triplicates, 5% DMSO, 25°C, experiment 1, read-out: IC50 Exp. 1
[6] = unlabeled TPSMB bicyclic peptide, mean of experiments 1-2 (JK20: one experiment), read-out: Mean IC50

Kd [1, 3]	Ki [2, 4]	Ki ([2]; single experiment with IC50 = 15.6 μM, read-out: KI (Figure 5B))	IC50 [2, 5]	IC50 ([2]; unlabeled TPSMB bicyclic peptide displacing 5 nM PIT0105006 from 10 nM JNK3, experiment 2, read-out: IC50 Exp. 2)	Kd ([1]; fluorescein-labeled unmodified linear peptide, without cyclisation by TPSMB, curve fit (SE: 250 μM), read-out: KD of linear peptide)	IC50 [2, 6]	SMILES
1.7 ± 0.8 µM	6.6 µM	3.6 µM	15.6 µM	41.3 µM			CSCC[C@@H]1NC(=O)[C@@H]2CSSCc3cc(cc(c3)CSSC[C@@H](C(=O)NCC(N)=O)NC(=O)[C@H](Cc3c[nH]c4ccccc34)NC(=O)[C@H](CCCNC(=N)N)NC(=O)[C@H](Cc3ccc(O)cc3)NC(=O)[C@H](CC(=O)O)NC(=O)[C@H](Cc3ccccc3)NC1=O)CSSC[C@H](NC(=O)[C@H](C)N)C(=O)N[C@@H](CC(=O)O)C(=O)N[C@@H](CC(=O)O)C(=O)N[C@@H](CCC(N)=O)C(=O)N[C@@H](Cc1c[nH]c3ccccc13)C(=O)N[C@@H](CCC(=O)O)C(=O)N[C@@H](Cc1ccc(O)cc1)C(=O)N2 [JK1-TPSMB] (H-ACDDQWEYCMFDYRWCG-NH2; linker 2-9-16 via Benzene(1,3,5-(CH2S)3))
1.7 ± 0.8 µM	6.6 µM				~390 µM	28.4 µM	CSCC[C@H](NC(=O)[C@H](CS)NC(=O)[C@H](Cc1ccc(O)cc1)NC(=O)[C@H](CCC(=O)O)NC(=O)[C@H](Cc1c[nH]c2ccccc12)NC(=O)[C@H](CCC(N)=O)NC(=O)[C@H](CC(=O)O)NC(=O)[C@H](CC(=O)O)NC(=O)[C@H](CS)NC(=O)[C@H](C)N)C(=O)N[C@@H](Cc1ccccc1)C(=O)N[C@@H](CC(=O)O)C(=O)N[C@@H](Cc1ccc(O)cc1)C(=O)N[C@@H](CCCNC(=N)N)C(=O)N[C@@H](Cc1c[nH]c2ccccc12)C(=O)N[C@@H](CS)C(=O)NCC(N)=O [JK1] (H-ACDDQWEYCMFDYRWCG-NH2)
	5.5 µM					23.6 µM	CC(C)C[C@@H]1NC(=O)[C@H](CC(=O)O)NC(=O)[C@H](CCC(=O)O)NC(=O)[C@@H]2CSSCc3cc(cc(c3)CSSC[C@@H](C(=O)NCC(N)=O)NC(=O)[C@H](CC(=O)O)NC(=O)[C@H](CC(=O)O)NC(=O)[C@H](CC(N)=O)NC1=O)CSSC[C@H](NC(=O)[C@H](C)N)C(=O)N[C@@H](Cc1ccccc1)C(=O)N[C@@H](Cc1c[nH]c3ccccc13)C(=O)N[C@@H](Cc1c[nH]c3ccccc13)C(=O)N[C@@H](Cc1ccccc1)C(=O)NCC(=O)N[C@@H](C)C(=O)N2 [JK10-TPSMB] (H-ACFWWFGACEDLNDDCG-NH2; linker 2-9-16 via Benzene(1,3,5-(CH2S)3))
	6.5 µM		27.8 µM			27.8 µM	CC[C@H](C)[C@@H]1NC(=O)[C@H](CCC(=O)O)NC(=O)[C@H](CC(=O)O)NC(=O)[C@H](Cc2c[nH]cn2)NC(=O)[C@@H](NC(=O)[C@H](C)N)CSSCc2cc3cc(c2)CSSC[C@H](NC(=O)[C@H]([C@@H](C)O)NC(=O)[C@H](Cc2c[nH]c4ccccc24)NC1=O)C(=O)N[C@@H](C(C)C)C(=O)N[C@@H](Cc1ccccc1)C(=O)N[C@@H](Cc1c[nH]cn1)C(=O)N[C@@H](CC(=O)O)C(=O)N[C@@H](CCC(=O)O)C(=O)N[C@@H](Cc1ccccc1)C(=O)N[C@H](C(=O)NCC(N)=O)CSSC3 [JK20-TPSMB] (H-ACHDEIWTCVFHDEFCG-NH2; linker 2-9-16 via Benzene(1,3,5-(CH2S)3))

Source: paper PMC6198510, “Switching Between Bicyclic and Linear Peptides — The Sulfhydryl-Specific Linker TPSMB Enables Reversible Cyclization of Peptides” (Frontiers in Chemistry, 2018)
